Values belong to the compound of their own block, whether it stands above or below them.
Tests used:
[1] = molecular target: Xanthine dehydrogenase/oxidase (Bos taurus, UniProt P80457); assay: Inhibition of bovine milk xanthine oxidoreductase by spectrophotometry
Xanthine dehydrogenase = molecular target: T1, Xanthine dehydrogenase (Rhodobacter capsulatus, UniProt O54050); assay: Inhibition of Rhodobacter capsulatus xanthine dehydrogenase
T1 sequence (O54050 whole entry): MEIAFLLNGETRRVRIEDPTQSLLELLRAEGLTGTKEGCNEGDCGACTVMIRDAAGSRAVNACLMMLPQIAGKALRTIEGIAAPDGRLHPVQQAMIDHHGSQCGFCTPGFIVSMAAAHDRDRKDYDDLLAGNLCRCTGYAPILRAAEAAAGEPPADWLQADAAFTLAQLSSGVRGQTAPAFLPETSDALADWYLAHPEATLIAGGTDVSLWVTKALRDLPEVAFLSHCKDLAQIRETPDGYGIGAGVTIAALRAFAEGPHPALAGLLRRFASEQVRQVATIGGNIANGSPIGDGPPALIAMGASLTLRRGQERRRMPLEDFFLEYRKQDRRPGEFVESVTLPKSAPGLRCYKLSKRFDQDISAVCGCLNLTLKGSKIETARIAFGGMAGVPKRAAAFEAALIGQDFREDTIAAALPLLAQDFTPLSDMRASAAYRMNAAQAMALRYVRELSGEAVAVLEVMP

[2] = molecular target: T2, Xanthine dehydrogenase/oxidase (Homo sapiens, UniProt P47989); assay: Inhibition of oxidized form of human xanthine oxidase
T2 sequence (P47989 whole entry): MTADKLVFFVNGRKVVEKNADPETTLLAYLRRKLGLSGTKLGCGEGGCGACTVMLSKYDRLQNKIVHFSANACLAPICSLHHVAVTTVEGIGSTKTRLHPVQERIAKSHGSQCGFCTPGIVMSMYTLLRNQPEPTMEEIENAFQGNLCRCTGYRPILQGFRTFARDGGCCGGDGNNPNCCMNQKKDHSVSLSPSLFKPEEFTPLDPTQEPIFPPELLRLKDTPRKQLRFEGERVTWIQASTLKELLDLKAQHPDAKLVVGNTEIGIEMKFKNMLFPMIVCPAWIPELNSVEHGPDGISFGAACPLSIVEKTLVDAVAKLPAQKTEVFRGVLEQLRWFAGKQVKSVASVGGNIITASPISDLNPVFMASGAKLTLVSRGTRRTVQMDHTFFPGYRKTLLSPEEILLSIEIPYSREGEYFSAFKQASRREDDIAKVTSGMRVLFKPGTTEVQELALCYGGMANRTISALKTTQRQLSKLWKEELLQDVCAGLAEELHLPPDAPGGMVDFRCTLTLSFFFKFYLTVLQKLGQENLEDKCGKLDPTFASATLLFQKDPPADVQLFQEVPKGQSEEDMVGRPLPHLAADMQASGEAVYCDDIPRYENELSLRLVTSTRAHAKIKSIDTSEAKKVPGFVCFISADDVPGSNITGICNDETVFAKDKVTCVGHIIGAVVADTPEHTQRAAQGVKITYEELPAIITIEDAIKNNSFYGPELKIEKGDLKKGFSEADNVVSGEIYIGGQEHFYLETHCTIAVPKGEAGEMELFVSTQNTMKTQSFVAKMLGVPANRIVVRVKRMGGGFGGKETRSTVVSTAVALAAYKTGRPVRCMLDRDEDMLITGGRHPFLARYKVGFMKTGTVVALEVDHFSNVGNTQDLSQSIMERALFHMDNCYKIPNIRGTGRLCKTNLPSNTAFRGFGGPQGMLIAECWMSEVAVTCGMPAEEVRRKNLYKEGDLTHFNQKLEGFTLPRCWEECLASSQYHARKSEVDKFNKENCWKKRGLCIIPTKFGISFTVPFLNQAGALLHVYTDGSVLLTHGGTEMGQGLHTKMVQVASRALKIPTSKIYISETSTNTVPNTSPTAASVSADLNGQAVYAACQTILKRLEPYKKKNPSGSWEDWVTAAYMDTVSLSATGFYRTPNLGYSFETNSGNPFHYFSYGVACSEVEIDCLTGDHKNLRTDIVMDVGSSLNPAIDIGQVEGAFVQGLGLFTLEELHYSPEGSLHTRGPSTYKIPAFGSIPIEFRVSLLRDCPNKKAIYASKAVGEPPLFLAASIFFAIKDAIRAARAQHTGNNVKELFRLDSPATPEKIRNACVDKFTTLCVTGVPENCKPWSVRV

[3] = molecular target: T2, Xanthine dehydrogenase/oxidase; assay: Inhibition of human xanthine oxidase

Xanthine dehydrogenase/oxidase (Bos taurus, UniProt P80457), sequence (P80457 whole entry): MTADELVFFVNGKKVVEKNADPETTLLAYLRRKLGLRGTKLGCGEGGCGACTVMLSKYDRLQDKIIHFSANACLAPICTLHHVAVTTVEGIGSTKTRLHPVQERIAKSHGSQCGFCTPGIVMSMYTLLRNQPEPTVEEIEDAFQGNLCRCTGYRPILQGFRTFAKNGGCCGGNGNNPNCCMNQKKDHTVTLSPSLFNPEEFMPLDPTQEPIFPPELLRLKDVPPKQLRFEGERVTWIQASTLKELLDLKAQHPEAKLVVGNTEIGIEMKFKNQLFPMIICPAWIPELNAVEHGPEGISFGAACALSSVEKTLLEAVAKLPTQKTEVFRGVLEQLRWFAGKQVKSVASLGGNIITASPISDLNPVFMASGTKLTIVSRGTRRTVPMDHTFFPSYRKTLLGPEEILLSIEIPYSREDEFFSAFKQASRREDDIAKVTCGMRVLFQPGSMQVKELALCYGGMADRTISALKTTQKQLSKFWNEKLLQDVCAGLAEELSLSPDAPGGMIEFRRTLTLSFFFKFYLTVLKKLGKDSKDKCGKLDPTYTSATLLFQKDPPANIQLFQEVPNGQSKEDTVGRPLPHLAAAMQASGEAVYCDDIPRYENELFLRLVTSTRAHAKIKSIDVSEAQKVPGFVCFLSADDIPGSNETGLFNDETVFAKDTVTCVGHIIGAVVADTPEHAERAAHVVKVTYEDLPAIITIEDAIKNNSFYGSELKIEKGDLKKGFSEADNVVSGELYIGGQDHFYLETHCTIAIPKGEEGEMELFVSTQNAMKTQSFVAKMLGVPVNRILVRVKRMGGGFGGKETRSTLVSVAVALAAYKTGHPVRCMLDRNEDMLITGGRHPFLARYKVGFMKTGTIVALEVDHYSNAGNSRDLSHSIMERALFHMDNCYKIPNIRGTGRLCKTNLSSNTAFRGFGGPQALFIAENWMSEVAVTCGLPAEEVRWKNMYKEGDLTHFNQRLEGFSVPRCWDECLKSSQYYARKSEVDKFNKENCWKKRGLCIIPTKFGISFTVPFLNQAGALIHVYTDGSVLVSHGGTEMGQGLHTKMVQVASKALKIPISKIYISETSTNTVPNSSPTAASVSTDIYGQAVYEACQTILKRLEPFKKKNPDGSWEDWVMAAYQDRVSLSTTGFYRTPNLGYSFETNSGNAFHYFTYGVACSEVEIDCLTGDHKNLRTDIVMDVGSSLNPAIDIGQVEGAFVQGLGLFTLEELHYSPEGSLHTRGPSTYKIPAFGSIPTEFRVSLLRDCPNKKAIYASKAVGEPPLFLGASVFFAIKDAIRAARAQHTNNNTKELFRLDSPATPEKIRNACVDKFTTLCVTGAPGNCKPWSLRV

- Ki [1]: 1.78 nM
- Ki (Xanthine dehydrogenase): 104 nM
Compound: Nc1nc2ncc(C=O)nc2c(=O)[nH]1

- Ki [2]: 1000 nM
- Ki [3]: 35 nM
Compound: O=c1[nH]c(=O)c2c[nH]nc2[nH]1 [OXYPURINOL]

Compound: O=c1c(O)c(-c2ccc(O)c(O)c2)oc2cc(O)cc(O)c12 [QUERCETIN]
- inhibition (INH) ([1]; cattle): Active

Source: ChEMBL document CHEMBL3352774 (J Nat Prod, 2014)
